Patent publication US20230330107A1, “METHODS TO PREVENT HIGH-GRADE SEROUS OVARIAN CANCER AND BREAST CANCER BY ADMINISTERING ANTIPROGESTINS” (priority 2020, published 2023)
Where “and” joins values, the source holds several entries; their conditions need not be identical. Equal entries are not always repeated. Entries after “also recorded” stand apart in the source; their conditions may differ.

Tests used:
[1] = tested on: DKO mice (Dicer1-Pten double-knockout, HGSC model); experiment: Mifepristone pellet in DKO mice with intact ovaries: HGSC development and survival; assay type: in vivo, mouse; settings: for median survival: DKO mice, range in brackets
Excerpt: (§1) Generation of DKO and cPR-DKO mice. DKO mice (Dicer1^flox/flox Pten flox/flox Amhr2^cre/+) were generated. A mouse line carrying Pgr^flox/flox, a conditional progesterone receptor (PR) gene (cPR), was provided by Drs. John Lydon and Francesco DeMayo. Conditional PR (Pgr^flox/flox)) mice were crossed with DKO mice, generating cPR- DKO mice (Pgr^flox/floxDicer1^flox/flox Pten^flox/flox Amhr2^cre/+). These Dicer1-Pten double-knockout (DKO) mice developed metastatic HGSCs arising from the fallopian tube with 100% penetrance. […] All DKO mice die of widespread peritoneal metastases. Besides mirroring the clinical features of human HGSC, these mouse HGSCs closely resemble human HGSC with histopathological, molecular, and genomic similarities. Mouse use and experiments were approved by the Institutional Animal Care and Use Committee (IACUC) at Indiana University School of Medicine.
(§2) Hormone pellet implantation. To evaluate the effects of steroid hormones on HGSC development, upon ovariectomy at 5-6 weeks of age, DKO mice were implanted subcutaneously with a pellet of 17-β estradiol (E2) (0.72 mg/90 days/mouse), progesterone (P4) (25 mg/90 days/mouse), or combined E2 (0.72 mg) & P4 (25 mg). Also, for shorter periods of P4 exposure, ovariectomized DKO mice were treated with a P4 pellet of 2 mg (1 week) or 6 mg (3 weeks). Another set of ovariectomized DKO mice implanted with a placebo (a pellet without hormone) served as controls. […] For a control group, DKO mice received a placebo pellet for mifepristone. After anesthesia, a pellet was inserted subcutaneously (SQ) after a single skin incision (0.5-1.0 cm) on the back near ovary location. The skin incision was closed with either monofilament suture or wound clips. The pellets were purchased from Innovative Research of America (Sarasota, FL, USA).
(§3) Statistical analysis. Statistical analyses were performed using a GraphPad Prism software (Version 8, GraphPad Software, Inc.). P values less than 0.05 were considered statistically significant. Log-rank test was used to compare survival distributions between different experimental groups of mice; Student's t-test to compare hormone levels between placebo-treated ovariectomized DKO mice and progesterone (P4)-treated ovariectomized DKO mice at 1 week, 3 weeks, and 3 months; Student's t-test to compare hormone levels between ovariectomized DKO mice (Ovex) and each experimental group of DKO mice; and Fisher's exact test to analyze PR expression in benign and malignant ovarian tumors.
Progesterone generates its biological effects through the progesterone receptors (PR). Thus, to evaluate further whether progesterone signaling is critical to the development of HGSC with metastatic potential, DKO mice were treated with the PR antagonist mifepristone (RU486), an antiprogestin, that acts by binding to PR and inhibiting the transcription of its target genes. […] As expected, DKO mice treated with a placebo developed primary HGSC coupled with abundant peritoneal HGSC metastases (FIG. 1A-B). […] Histologically, the fallopian tubes from mifepristone-treated mice were composed of cystic and fibrous tissues as well as small segments of carcinoma cells in the stroma, accompanied by limited peritoneal metastasis (FIG. 1E-G).

ovariectomized DKO mice = assay type: in vivo
Excerpt: as §1
Mouse bilateral ovariectomy. To examine the effect of ovary on HGSC development in the fallopian tube, both ovaries were surgically excised with the fallopian tubes remaining intact in DKO mice. The surgery was performed at 5-6 weeks of age, when there is no sign of tumors in the fallopian tube. These ovary-deficient DKO mice were then monitored for tumor development. Another set of DKO mice without surgery served as controls. Prior to surgery, DKO mice were anesthetized using Avertin (2,2,2,-tribromoethano) (125-250 mg/kg) (Sigma-Aldrich, St. Louis, Missouri, USA). For analgesia, Carprofen (5-10 mg/kg) (TCI America, Portland, OR, USA) was used a one dose pre-operatively and every 12 hours thereafter for 24-48 hours post-operatively.
as §2, §3
Progesterone induces HGSC with metastatic potential in ovary-deficient DKO mice. Ovary-deficient DKO mice were treated with steroid hormones. […] Tumor development and mouse survival were then monitored.

[2] = Measurement of serum hormone levels (ELISA) in ovariectomized DKO mice; assay type: in vivo, mouse; settings: P4-treated ovariectomized DKO mice
Description: Measurement of hormone levels. Blood samples were collected in serum separation tubes (BD Microtainer® Tube; 365967; BD Biosciences, San Jose, CA, USA) from DKO mice or ovariectomized DKO mice with or without hormone treatment. Serum was isolated by centrifugating blood at 14,000 rpm for 5 minutes at room temperature. Measurements of serum progesterone (P4), 17-β estradiol (E2), testosterone (T), follicle-stimulating hormone (FSH), and luteinizing hormone (LH) levels were performed using ELISA (enzyme-linked immunoassay: P4, E2, and T) or RIA (radioimmunoassay: FSH and LH) at the Center for Research Ligand Assay and Analysis Core in Reproduction at the University of Virginia.

[3] = mifepristone 3 mg/m for 3 months
[4] = mifepristone 16.7 mg/m for 6 months

SMILES: CC#C[C@]1(O)CC[C@H]2[C@@H]3CCC4=CC(=O)CCC4=C3[C@@H](c3ccc(N(C)C)cc3)C[C@@]21C [mifepristone, (8S,11R,13S,14S,17S)-11-[4-(dimethylamino)phenyl]-17-hydroxy-13-methyl-17-prop-1-ynyl-1,2,6,7,8,11,12,14,15,16-decahydrocyclopenta[a]phenanthren-3-one]
- median survival ([1]; mifepristone 3 mg/m for 3 months, s.c. pellet from 5-6 weeks of age): 11.2 (5.9-21.3) months of age
- median survival ([1]; mifepristone 16.7 mg/m for 6 months, s.c. pellets): 13.1 (6.6-24.3) months of age and 13.1 months of age
- DKO mice not inhibited by mifepristone (HGSC development and peritoneal metastasis) ([1]; high dose, 16.7 mg/m for 6 m, 2/21 mice): 9.5%
- DKO mice that still developed fallopian tube HGSC and widespread peritoneal metastases ([1]; low-dose group, 3 mg/m, 7/21 mice): 33.3%
- hazard ratio (HR) of survival vs placebo-treated DKO mice [1, 3]: 0.40
- lived longer than DKO mice with placebo [1, 3]: ~4 months
- effect on HGSC development and peritoneal metastasis (in words) ([1]; mifepristone 3 mg/m for 3 months vs placebo): developed little peritoneal metastasis; also recorded: effectively suppressed HGSC development in the fallopian tube and peritoneal metastasis
- effect on HGSC development and peritoneal metastasis (in words) ([1]; mifepristone 16.7 mg/m for 6 m): effectively suppressed HGSC development and peritoneal metastasis
- hazard ratio (HR) of survival vs placebo-treated DKO mice [1, 4]: 0.13
- lived longer than placebo-treated DKO mice [1, 4]: ~6 months

SMILES: CC(=O)[C@H]1CC[C@H]2[C@@H]3CCC4=CC(=O)CC[C@]4(C)[C@H]3CC[C@]12C [P4, progesterone]
- hazard ratio (HR) of survival vs placebo-treated ovariectomized DKO mice (ovariectomized DKO mice; P4 25 mg pellet for 3 months): 3.01
- ovariectomized DKO mice that developed predominantly HGSC in the fallopian tube with widespread peritoneal metastases and ascites (ovariectomized DKO mice; P4 25 mg pellet for 3 months, 32/32 mice): 100%
- median survival (ovariectomized DKO mice; ovariectomized DKO mice, s.c. hormone pellet for 3 months (P4 25 mg; E2 0.72 mg), range in brackets): 6.5 months of age
- serum progesterone levels (in words) [2]: elevated serum progesterone levels

SMILES: C[C@]12CC[C@@H]3c4ccc(O)cc4CC[C@H]3[C@@H]1CC[C@@H]2O [E2, 17-β estradiol]
- ovariectomized DKO mice with tumors or swelling in the uterus (ovariectomized DKO mice; female, DKO (Dicer1flox/flox Ptenflox/flox Amhr2cre/+), mouse, in vivo, 3 months): 90.9%
- tumor phenotype in ovariectomized DKO mice (in words) (ovariectomized DKO mice; s.c. hormone pellet for 3 months): did not produce any tumors in the fallopian tube
